“Also recorded” adds a separate entry of the source.
Legend:
TRPV1 [1] = target: T1, TRPV1 (Rattus norvegicus, UniProt O35433); test: Whole-cell patch-clamp of TRPV1-expressing HEK293 cells; type: cell-based; parameters: expressed in transfected cells; host or cells: HEK 293F (Invitrogen), co-transfected with GFP cDNA; conditions: for Shifts in TRPV1 V1/2 and increases in maximal conductance by alcohols: decanol 0.6 mM, dodecanol 0.1 mM
Protocol: (§1) Electrophysiology. […] Whole-cell and single-channel patch-clamp recordings were performed by using an EPC8 amplifier (HEKA Electronics). For whole-cell and excised patch recordings the bath solution contained 140 mMNaCl, 4 mMKCl, 1 mMMgCl2, 1.2 mMCaCl2, 10 mMHepes, 10 mM glucose, pH 7.3. For cell-attached experiments, NaCl was replaced with KCl in the bath solution. […] For neuronal recording NaCl was replaced with K-gluconate (plus 1 mMATP, 0.2 mM GTP). Solutions were applied via a gravity-fed system. […] Voltage-dependent properties were measured as described in Matt and Ahern, J. Physiol. […] The baseline currents under control conditions were subtracted. For cell-attached experiments, peak amplitudes were measured from all-points histograms, and open probability was measured as NPo>750 ms. Defolliculated Xenopus laevis oocytes were injected with ≈10 ng of hTRPA1 (gift of Ardem Patapoutian, The Scripps Research Institute, La Jolla, Calif.).
HEK cell and sensory neuron electrophysiology. […] Cell cultures were maintained at 37° C. with 5% CO2. Cells were transfected with rat TRPV 1 (gift of David Julius), and GFP cDNA using Lipofectamine™ Transfection Reagent (Invitrogen) and used 24-48 h after transfection. Nodose ganglia were obtained from adult mice (C57B16/J and TRPV1-null), cut, digested with collagenase, and cultured in Neurobasal +2% B-27 medium (Invitrogen), 0.1% L-glutamine and 1% penicillin/streptomycin on poly-D lysine-coated glass coverslips at 37° C. in 5% CO2. Neurons were used within 24-36 hr of culture. Whole-cell and single-channel patch clamp recordings were performed using an EPC8 amplifier (HEKA). The current signal was low-pass filtered at 1-3 kHz and sampled at 4 kHz. Currents were further filtered for display purposes. For whole-cell and excised patch recordings the bath solution contained (in mM): 140 NaCl, 4 KCl, 1 MgCl2, 1 EGTA, 10 HEPES, 10 glucose pH 7.3 (290 mOsm). The pipette solution contained (in mM): 140 CsC1, 10 NaCl, 10 HEPES, 5 EGTA, 2 Mg ATP and 0.03 GTP, pH 7.3. The peak amplitudes measured either during the prepulse or the tail current (within 1 ms) were plotted as a function of the test potential and normalized to the maximal current obtained from the following Boltzmann function: […]

[2] = rat at 37° C.; cited from earlier work
TRPV1 [3] = target: T1, TRPV1; test: Voltage-clamp of TRPV1-expressing Xenopus oocytes (capsaicin, protons, heat); type: cell-based; conditions: VGAs 0.6 mM, pH 5.5
Protocol: Oocyte electrophysiology. […] Oocytes were placed in a Perspex chamber and continuously superfused (5 ml min-1) with Ca2+-free solution containing (in mM): 100 NaCl, 2.5 KCl, 5 HEPES, 1 MgCl2 and titrated to pH 7.3 with ˜5 mM NaOH. For solutions <pH 6.0, HEPES was replaced with either 5 mM MES or 5 mM sodium citrate. Oocytes were routinely voltage-clamped at −60 mV at 22-23° C. For heat activation, bath temperature was raised from ˜22-50° C. over ˜100 s using an in-line solution heater (Warner Instruments). The temperature was continuously monitored with a probe placed within 2 mm of the oocyte. The temperature-activation threshold was defined as a 20% increase in current above baseline.
Volatile general anesthetics. Saturated stock solutions of volatile general anesthetics (VGAs) were prepared in gas-tight bottles by dissolving excess anesthetic agents in bath solutions and stirring vigorously overnight. From these stock solutions fresh dilutions were made up every 40-60 minutes. Concentrations of volatile anesthetics in the bath solutions were verified using a modified head-space gas chromatography method. The gas chromatograph (Carlo Erba, Milan, Italy) was equipped with a flame ionization detector (FID) and mass spectrometer. The carrier gas was hydrogen (60 kPa column head pressure) and the fused silica capillary column, coated with polysiloxane SE-30, was 25 m×0.25 mm. Injector temperature was 250° C., FID temperature was 300° C. and the oven was maintained at 90° C. Standards were prepared from a mixture of halothane, isoflurane, and sevoflurane dissolved in acetonitrile with enflurane as an internal standard.

TRPV1 [4] = target: T2, TRPV1 (Mus musculus, UniProt Q704Y3); test: Patch-clamp of capsaicin-sensitive sensory neurons (nodose ganglia); type: cell-based
T2 construct: endogenous in cells; host or cells: primary nodose ganglion neurons of adult C57Bl6/J mice
T2 sequence (Q704Y3 whole entry): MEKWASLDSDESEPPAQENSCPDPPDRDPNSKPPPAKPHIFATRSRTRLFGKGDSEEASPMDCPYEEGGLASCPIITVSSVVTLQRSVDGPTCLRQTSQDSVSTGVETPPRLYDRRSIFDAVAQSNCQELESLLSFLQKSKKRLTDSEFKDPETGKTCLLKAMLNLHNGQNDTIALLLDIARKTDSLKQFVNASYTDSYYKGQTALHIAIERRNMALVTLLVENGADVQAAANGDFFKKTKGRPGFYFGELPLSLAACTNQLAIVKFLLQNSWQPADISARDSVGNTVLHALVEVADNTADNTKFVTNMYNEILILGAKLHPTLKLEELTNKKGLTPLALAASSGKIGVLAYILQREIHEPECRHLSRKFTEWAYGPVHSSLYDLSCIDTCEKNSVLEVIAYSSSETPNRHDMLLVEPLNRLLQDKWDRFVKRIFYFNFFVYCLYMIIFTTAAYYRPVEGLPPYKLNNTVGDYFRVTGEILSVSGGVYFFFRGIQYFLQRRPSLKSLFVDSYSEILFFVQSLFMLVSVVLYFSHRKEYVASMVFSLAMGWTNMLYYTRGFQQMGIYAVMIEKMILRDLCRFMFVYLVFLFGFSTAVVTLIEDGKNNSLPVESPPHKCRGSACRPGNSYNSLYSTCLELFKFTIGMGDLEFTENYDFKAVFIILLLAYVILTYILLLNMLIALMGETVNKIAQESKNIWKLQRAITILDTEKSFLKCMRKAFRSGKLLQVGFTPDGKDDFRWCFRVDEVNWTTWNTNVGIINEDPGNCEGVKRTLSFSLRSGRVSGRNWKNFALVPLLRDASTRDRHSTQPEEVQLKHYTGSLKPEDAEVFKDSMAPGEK
Protocol: HEK cell and sensory neuron electrophysiology. HEK 293F cells (Invitrogen) were cultured in DMEM supplemented with 1% non-essential amino acids and 10% fetal calf serum. Cell cultures were maintained at 37° C. with 5% CO2. Cells were transfected with rat TRPV 1 (gift of David Julius), and GFP cDNA using Lipofectamine™ Transfection Reagent (Invitrogen) and used 24-48 h after transfection. Nodose ganglia were obtained from adult mice (C57B16/J and TRPV1-null), cut, digested with collagenase, and cultured in Neurobasal +2% B-27 medium (Invitrogen), 0.1% L-glutamine and 1% penicillin/streptomycin on poly-D lysine-coated glass coverslips at 37° C. in 5% CO2. Neurons were used within 24-36 hr of culture. Whole-cell and single-channel patch clamp recordings were performed using an EPC8 amplifier (HEKA). The current signal was low-pass filtered at 1-3 kHz and sampled at 4 kHz. Currents were further filtered for display purposes. For whole-cell and excised patch recordings the bath solution contained (in mM): 140 NaCl, 4 KCl, 1 MgCl2, 1 EGTA, 10 HEPES, 10 glucose pH 7.3 (290 mOsm). The pipette solution contained (in mM): 140 CsC1, 10 NaCl, 10 HEPES, 5 EGTA, 2 Mg ATP and 0.03 GTP, pH 7.3. The peak amplitudes measured either during the prepulse or the tail current (within 1 ms) were plotted as a function of the test potential and normalized to the maximal current obtained from the following Boltzmann function: […]

TRPM8 = target: T3, TRPM8 (Rattus norvegicus, UniProt Q8R455); test: Whole-cell patch-clamp of TRPM8-expressing HEK293 cells; type: cell-based
T3 construct: expressed in transfected cells; host or cells: HEK 293F
T3 sequence (Q8R455 whole entry): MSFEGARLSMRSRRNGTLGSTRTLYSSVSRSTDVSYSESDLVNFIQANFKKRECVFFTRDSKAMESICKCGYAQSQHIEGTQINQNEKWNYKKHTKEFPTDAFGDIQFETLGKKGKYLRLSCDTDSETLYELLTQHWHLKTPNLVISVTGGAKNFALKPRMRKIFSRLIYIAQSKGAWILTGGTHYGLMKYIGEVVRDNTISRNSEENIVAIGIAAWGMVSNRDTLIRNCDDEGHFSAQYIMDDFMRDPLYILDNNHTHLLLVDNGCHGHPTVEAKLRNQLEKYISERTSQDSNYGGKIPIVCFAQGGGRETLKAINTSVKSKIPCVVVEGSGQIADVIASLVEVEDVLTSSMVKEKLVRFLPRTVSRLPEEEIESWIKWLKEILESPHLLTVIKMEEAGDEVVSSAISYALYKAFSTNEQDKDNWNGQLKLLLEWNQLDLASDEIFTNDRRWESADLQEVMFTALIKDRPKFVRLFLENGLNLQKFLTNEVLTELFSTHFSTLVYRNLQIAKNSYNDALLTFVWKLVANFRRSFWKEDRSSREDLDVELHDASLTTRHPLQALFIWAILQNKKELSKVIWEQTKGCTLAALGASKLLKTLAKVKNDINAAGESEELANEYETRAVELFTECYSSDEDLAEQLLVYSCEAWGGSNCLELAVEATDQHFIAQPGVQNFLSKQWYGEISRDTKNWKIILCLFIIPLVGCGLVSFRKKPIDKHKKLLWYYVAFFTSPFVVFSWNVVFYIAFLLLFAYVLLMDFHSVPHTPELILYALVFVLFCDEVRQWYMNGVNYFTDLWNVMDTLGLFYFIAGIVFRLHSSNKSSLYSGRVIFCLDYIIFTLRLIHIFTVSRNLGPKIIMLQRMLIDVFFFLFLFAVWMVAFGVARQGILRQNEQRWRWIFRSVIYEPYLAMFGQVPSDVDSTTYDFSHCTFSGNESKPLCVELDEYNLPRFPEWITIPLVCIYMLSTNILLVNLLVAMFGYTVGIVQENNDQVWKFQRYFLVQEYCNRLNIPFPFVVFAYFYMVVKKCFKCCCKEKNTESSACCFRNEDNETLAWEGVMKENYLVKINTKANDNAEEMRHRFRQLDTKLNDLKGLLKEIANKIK
Protocol: as §1

[5] = test system: AITC-sensitive DRG neurons; test: Voltage- and current-clamp of DRG sensory neurons; type: cell-based, mouse; conditions: camphor 0.5 mM, propofol 100 μM
Protocol: (§2) Electrophysiology. HEK 293F cells were transfected with rat TRPV1, TRPA1, and TRPM8 (gift of David Julius, University of California, San Francisco). Dorsal root ganglia were cultured from adult mice (C57B16/J wild type and TRPV1-null, and mixed B6/129 background TRPA1-null) in Neurobasal +2% B-27 medium (Invitrogen), 0.1% L-glutamine and 1% penicillin/streptomycin. Whole-cell and single-channel patch-clamp recordings were performed by using an EPC8 amplifier (HEKA Electronics). For whole-cell and excised patch recordings the bath solution contained 140 mMNaCl, 4 mMKCl, 1 mMMgCl2, 1.2 mMCaCl2, 10 mMHepes, 10 mM glucose, pH 7.3. For cell-attached experiments, NaCl was replaced with KCl in the bath solution. The pipette solution contained 140 mM NaCl or KCl, 10 mM Hepes, 5 mM EGTA, pH 7.3. For neuronal recording NaCl was replaced with K-gluconate (plus 1 mMATP, 0.2 mM GTP). Solutions were applied via a gravity-fed system. Separate outlets were used to apply capsaicin and AITC solutions to avoid contamination. Voltage-dependent properties were measured as described in Matt and Ahern, J. Physiol. 585:469-482 (2007). Current-voltage measurements comprised a 200-ms ramp from −150 mV to +200 mV. The baseline currents under control conditions were subtracted. For cell-attached experiments, peak amplitudes were measured from all-points histograms, and open probability was measured as NPo>750 ms. Defolliculated Xenopus laevis oocytes were injected with ≈10 ng of hTRPA1 (gift of Ardem Patapoutian, The Scripps Research Institute, La Jolla, Calif.). Oocytes were placed in a Perspex chamber and continuously superfused (5 ml min^−1) with Ca^2+-free solution containing 100 mM NaCl, 2.5 mM KCl, 5 mM Hepes, 1 mM MgC12 and titrated to pH 7.3 with ˜5 mM NaOH.

hTRPA1 = target: T4, hTRPA1 (Homo sapiens, UniProt O75762); test: AITC-evoked currents in TRPA1-expressing Xenopus oocytes; type: cell-based; conditions: VGAs 0.5-0.65 mM, AITC 10 μM
T4 construct: expressed in transfected cells; host or cells: Xenopus laevis oocytes (injected)
T4 sequence (O75762 whole entry): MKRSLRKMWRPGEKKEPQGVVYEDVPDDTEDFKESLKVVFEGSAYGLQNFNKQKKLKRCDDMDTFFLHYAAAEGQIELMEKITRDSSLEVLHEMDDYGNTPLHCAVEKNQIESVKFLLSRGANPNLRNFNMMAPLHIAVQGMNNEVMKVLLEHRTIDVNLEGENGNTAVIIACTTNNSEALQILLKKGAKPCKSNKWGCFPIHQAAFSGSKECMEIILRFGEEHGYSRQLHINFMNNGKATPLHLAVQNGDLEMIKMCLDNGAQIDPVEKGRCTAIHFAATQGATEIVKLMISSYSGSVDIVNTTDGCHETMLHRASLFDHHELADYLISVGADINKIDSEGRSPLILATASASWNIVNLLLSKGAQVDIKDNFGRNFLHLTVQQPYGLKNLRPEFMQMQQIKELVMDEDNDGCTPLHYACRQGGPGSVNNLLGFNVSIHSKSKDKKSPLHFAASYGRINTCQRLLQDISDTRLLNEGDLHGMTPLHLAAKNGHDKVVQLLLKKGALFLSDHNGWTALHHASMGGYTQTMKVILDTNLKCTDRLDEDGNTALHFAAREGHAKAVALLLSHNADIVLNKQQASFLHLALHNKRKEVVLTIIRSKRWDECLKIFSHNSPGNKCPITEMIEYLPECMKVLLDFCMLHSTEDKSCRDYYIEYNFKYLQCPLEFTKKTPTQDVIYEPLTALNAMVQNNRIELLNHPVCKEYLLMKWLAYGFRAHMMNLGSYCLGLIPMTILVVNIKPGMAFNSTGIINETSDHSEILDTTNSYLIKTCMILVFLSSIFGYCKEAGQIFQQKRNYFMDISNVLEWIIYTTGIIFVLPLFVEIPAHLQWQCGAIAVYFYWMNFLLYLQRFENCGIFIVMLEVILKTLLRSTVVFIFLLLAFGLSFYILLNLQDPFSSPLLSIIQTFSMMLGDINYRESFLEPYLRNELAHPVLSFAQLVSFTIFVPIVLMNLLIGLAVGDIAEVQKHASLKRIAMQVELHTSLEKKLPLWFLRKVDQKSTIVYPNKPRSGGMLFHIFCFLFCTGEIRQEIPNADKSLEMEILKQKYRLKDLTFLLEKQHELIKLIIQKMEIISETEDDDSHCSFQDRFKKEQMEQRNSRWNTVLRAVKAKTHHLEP
Protocol: as §2

TRPA1 = target: T5, TRPA1 (Rattus norvegicus, UniProt Q6RI86); test: Whole-cell patch-clamp of TRPA1-expressing HEK293 cells; type: cell-based; conditions: for Activation of TRPA1 currents by VGAs: 0.9 mM, voltage-clamped HEK293 cells
T5 construct: expressed in transfected cells; host or cells: HEK 293F
T5 sequence (Q6RI86 whole entry): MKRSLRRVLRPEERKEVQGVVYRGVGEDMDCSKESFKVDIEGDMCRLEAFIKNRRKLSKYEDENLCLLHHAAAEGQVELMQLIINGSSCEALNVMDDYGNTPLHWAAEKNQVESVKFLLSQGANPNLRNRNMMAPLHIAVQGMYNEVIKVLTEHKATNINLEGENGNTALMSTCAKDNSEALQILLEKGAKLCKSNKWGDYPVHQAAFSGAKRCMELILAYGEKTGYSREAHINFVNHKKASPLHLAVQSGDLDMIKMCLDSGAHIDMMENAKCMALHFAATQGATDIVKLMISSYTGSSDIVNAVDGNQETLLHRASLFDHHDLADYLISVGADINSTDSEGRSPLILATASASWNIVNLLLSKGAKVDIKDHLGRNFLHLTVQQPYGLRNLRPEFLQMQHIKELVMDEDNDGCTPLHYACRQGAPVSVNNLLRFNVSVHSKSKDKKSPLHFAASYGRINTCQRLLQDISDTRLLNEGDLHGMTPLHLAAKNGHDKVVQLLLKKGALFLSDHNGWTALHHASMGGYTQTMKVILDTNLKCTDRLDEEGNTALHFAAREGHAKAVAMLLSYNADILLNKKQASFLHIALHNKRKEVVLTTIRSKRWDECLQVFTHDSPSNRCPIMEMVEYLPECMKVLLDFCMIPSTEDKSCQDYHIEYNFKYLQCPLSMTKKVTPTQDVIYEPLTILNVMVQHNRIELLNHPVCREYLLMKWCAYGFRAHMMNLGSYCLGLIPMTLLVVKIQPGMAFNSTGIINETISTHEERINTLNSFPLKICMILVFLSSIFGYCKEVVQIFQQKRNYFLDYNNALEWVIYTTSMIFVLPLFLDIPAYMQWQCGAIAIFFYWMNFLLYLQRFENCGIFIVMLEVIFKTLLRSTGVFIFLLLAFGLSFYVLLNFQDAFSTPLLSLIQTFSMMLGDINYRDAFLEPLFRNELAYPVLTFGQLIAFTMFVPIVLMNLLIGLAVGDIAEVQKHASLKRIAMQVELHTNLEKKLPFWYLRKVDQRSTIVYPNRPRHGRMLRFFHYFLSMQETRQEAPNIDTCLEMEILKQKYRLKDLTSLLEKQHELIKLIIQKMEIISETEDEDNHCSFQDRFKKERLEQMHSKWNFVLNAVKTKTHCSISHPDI
Protocol: as §1
Volatile General Anesthetics and Chemicals. Saturated stock solutions of volatile GAs were prepared in gas-tight bottles by dissolving excess anesthetic agents in bath solutions overnight. From these stock solutions fresh dilutions were made up every 40-60 min. Concentrations of GAs in the bath solutions were verified by using a modified head-space gas chromatography method. […] Alcohols with <6 carbons were dissolved directly into extracellular solution, and alcohols containing 6 carbons or more were dissolved in DMSO and then diluted into extracellular solutions that were sonicated for 20 min. All other drugs were prepared as stock solutions in DMSO or ethanol and diluted into physiological solution before experiments.

[6] = test system: DRG neurons from TRPA1-null mice; test: Ca2+ imaging in DRG neurons from TRPA1-null mice; type: cell-based, mouse; conditions: capsaicin 100 nM
Protocol: Ca^2+ Imaging. Neurons were loaded with 1 μM Fluo4-AM (Molecular Probes) for 20 min and washed for a further 10-20 min before recording. The dye was excited at 488±15 nm. Emitted fluorescence was filtered with a 535±25 nm bandpass filter, captured by a SPOT RT digital camera (Diagnostic Instruments) and read into a computer. Analysis was performed offline by using Simple PCI software (Compix Inc.).

mice [7] = test: Flexor reflex response (EMG of semitendinosus muscle) after femoral artery injection; type: in vivo, mouse; conditions: propofol 500 μM, capsaicin 50 μM
Protocol: (§3) Behavioral Experiments and Neurogenic Inflammation. Animal experiments were performed according to National Institutes of Health and institutional guidelines. […] Nocifensive behavior (nose wiping in sawdust bedding) was recorded for 2 min with a video camera and the duration was subsequently measured by a blinded observer. […] Electromyographic (EMG) activity was recorded via platinum electrodes from the semitendinosus muscle in mice anesthetized with urethane (1.3 g/kg) as described in Ando and Watanabe, Br J. Anaesth. […] The EMG signal was recorded by using a low-pass cutoff frequency of 200 Hz and integrated offline by using a 100-ms time window. […] Ear thickness was recorded by using an engineer's micrometer (Mitutoyo Corp.) before mustard-oil application and thereafter every 15 min for 60 min of anesthesia and 60 min of recovery.

mice [8] = test: Nocifensive behavior after topical application to the nasal epithelium; type: in vivo, mouse; conditions: capsaicin 10 mM
Protocol: as §3

[9] = isoflurane 0.9 mM, octanol 1 mM

T1 sequence (O35433 whole entry): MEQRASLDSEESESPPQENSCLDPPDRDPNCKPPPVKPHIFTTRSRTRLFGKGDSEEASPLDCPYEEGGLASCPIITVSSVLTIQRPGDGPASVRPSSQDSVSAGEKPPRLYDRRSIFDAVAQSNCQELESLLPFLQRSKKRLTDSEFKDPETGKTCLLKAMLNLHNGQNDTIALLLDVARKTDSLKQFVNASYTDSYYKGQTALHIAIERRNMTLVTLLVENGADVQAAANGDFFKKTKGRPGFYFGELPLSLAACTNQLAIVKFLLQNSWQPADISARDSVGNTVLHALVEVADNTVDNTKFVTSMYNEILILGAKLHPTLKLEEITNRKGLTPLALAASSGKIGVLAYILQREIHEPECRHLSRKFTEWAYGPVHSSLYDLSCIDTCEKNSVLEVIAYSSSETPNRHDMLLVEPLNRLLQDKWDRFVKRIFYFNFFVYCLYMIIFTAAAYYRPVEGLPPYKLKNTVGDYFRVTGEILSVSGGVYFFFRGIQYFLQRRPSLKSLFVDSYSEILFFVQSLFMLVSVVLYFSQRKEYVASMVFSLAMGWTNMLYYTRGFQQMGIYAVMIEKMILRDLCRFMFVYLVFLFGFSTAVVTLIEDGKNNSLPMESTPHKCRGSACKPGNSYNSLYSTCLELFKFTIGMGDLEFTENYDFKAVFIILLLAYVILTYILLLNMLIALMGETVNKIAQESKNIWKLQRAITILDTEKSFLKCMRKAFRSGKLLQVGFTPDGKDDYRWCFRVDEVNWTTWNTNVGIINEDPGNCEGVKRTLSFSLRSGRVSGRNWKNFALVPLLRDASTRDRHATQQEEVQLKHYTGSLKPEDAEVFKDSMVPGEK

CCCCCCCCCCO [decanol]
Shifts in TRPV1 V1/2 and increases in maximal conductance by alcohols (TRPV1 [1]; octanol 1 mM): smaller response

CCCCCCCCCCCCO [dodecanol]
Shifts in TRPV1 V1/2 and increases in maximal conductance by alcohols (TRPV1 [1]; octanol 1 mM): without effect

FC(F)OC(F)(F)C(F)Cl (centres unmarked) [enflurane]
1 MAC equivalent aqueous concentration (published conversion factor) [2]: 0.64 mM | Enhancement of proton-evoked currents compared with isoflurane and sevoflurane (TRPV1 [3]): significantly more

Oc1cc2c(cc1O)CN(C(=S)NCCc1ccc(Cl)cc1)CCC2 [capsazepine]
Inhibition of responses to isoflurane after BK (TRPV1 [4]; capsazepine 1 μM, 3 of 3 cells): completely inhibited

CC(C)(C)c1ccc(/C=C/C(=O)Nc2ccc3c(c2)OCCO3)cc1 [AMG9810]
Inhibition of isoflurane-evoked TRPV1 responses after PDBu (TRPV1 [4]): inhibits; also recorded: completely inhibited

CCOC(=O)c1cncn1[C@H](C)c1ccccc1 [etomidate]
Change in V1/2 of TRPM8 (ΔV1/2, increase) (TRPM8; 100 μM, n=5-6): 25.5 mV

CC12CCC(CC1=O)C2(C)C (centres unmarked) [camphor]
Inhibition of propofol-evoked inward currents [5]: blocked; also recorded: sensitive

FCOC(C(F)(F)F)C(F)(F)F [sevoflurane]
Effect on AITC-evoked currents (hTRPA1): did not | Activation of TRPA1 currents by VGAs (TRPA1): without effect | 1 MAC equivalent aqueous concentration (published conversion factor) [2]: 0.35 mM

FC(F)(F)C(Cl)Br (centres unmarked) [halothane]
Activation of TRPA1 currents by VGAs (TRPA1): without effect | 1 MAC equivalent aqueous concentration (published conversion factor) [2]: 0.27 mM | Currents evoked after PDBu treatment in TRPV1-expressing HEK293 cells (TRPV1 [1]; VGA 0.9 mM, PDBu 500 nM, room temperature (25° C.)): activates currents

CCCCCCCCO [octanol]
Activation of TRPA1 at holding potential −50 mV (TRPA1; [9]): selectively activated | Response relative to 1 mM AITC (TRPA1; octanol 1.8 mM, at +200 mV): < 50% | Effects at TRPV1 at holding potential −50 mV (TRPV1 [1]; [9]): negligible effects | Shifts in TRPV1 V1/2 and increases in maximal conductance by alcohols (TRPV1 [1]; octanol 1 mM): reached a maximum | Response relative to 10 μM capsaicin (TRPV1 [1]; octanol 1.8 mM, at 200 mV): ~40% | Effects at TRPM8 at holding potential −50 mV (TRPM8; [9]): negligible effects

COc1cc(CNC(=O)CCCC/C=C/C(C)C)ccc1O [capsaicin]
TRPA1-deficient cells sensitive to capsaicin [6]: 43% | Flexor reflex muscle activity in TRPA1+/− mice (mice [7]): robust responses | Flexor reflex muscle activity in TRPA1-null mice (mice [7]): robust responses | Nocifensive behavior in TRPV1-null mice (mice [8]): but not in TRPV 1-null mice | Nocifensive behavior in wild-type mice (mice [8]): produced similar behavior

COC(F)(F)C(Cl)Cl [methoxyflurane]
Effect on AITC-evoked currents (hTRPA1): did not

From patent publication US20110104301A1, “METHODS OF REDUCING PAIN AND INFLAMMATION” (Georgetown University, A Congressionally Chartered …, priority 2008, published 2011)
